How the values were obtained:
wheat [1] = assay: Greenhouse comparison of wheat growth after 25 mM seed treatments of three dithiophosphates; type: in vivo; conditions: 25 mM seed treatment in diluted SPRET, 7% w/v, 21 days after planting
Protocol: (§1) All greenhouse experiments took place under a 16-hour photoperiod with temperatures set to 22° C. day and 18° C. night.
Dithiophosphates have different chemical properties depending on the length of their chains. For instance, the length of the carbon chain influences solubility of the chemical and the rate of H2S release. Growth of wheat when treated with 25 mM seed treatments of three different DTPs: dibutyldithiophosphate (C4), dioctyldithiophosphate (C8), and dihexyldecycldithiophosphate (C16) was evaluated. Chemical amount per seed used in 25 mM seed treatment applications is described in Table 1. Seed was treated with a 25 mM solution in which the DTP was dissolved in a low concentration of SPRET non-ionic surfactant (Method 1 below). After seeds had dried, they were sown in moist potting soil at a rate of 4 seeds per pot and then not watered for 5 days. There were 5 reps for each treatment where each rep was the average from a single pot. Measurements were collected 21 days after planting. Tiller number was improved for each of the three DTP treatments but was most improved with the dibutyl dithiophosphate (C4) source (FIG. 4).
(§2) Two seed treatment methods were examined: 1) Seed treated with DBDTP applied using a non-ionic surfactant and 2) Seed treated with DBDTP added to commonly used pesticide seed treatments (Example 8). For this testing, DBDTP was used as the dithiophosphate source. Note that the seed treatment concentration and volume is not standard across plant species. Each species tolerates a different level of DBDTP and the volume used to treat each species is dependent on seed size. After adding treatment to seed, seed was rolled for 5 minutes. Seed was then exposed to air and allowed to dry completely prior to planting.
(§3) For this method, the non-ionic wetter/spreader surfactant used for all treatments was SPRET (Helena Holding Company). The lowest recommended SPRET concentration was selected from the product label (1.25 mL/L H2O).

wheat [2] = assay: Wheat germination test (cigar roll method) in aqueous DBDTP; type: in vivo; conditions: wheat seeds in germination paper rolls, 7 days, compared to the 0 mg/L control; 41.2 μM-1.03 mM
Protocol: Wheat: For germination tests, 50 wheat seeds were placed within a roll of germination paper using the cigar roll method (Bai C, 2013, J Exp Bot, 64:1745-1753) with n=50. Rolls were placed upright in tubs containing varying concentrations of DBDTP in water, such that the end of the roll was submerged 3″ into the solution. Lids were placed on tubs, then shoot and root length measurements were recorded after 7 days.

pea [3] = assay: Pea germination test (cigar roll method) in aqueous DBDTP; type: in vivo; conditions: at all levels of DBDTP tested, 7 days
Protocol: Pea: For germination tests, 25 pea seeds were placed within each roll of germination paper using the cigar method described above. Measurements were recorded after 7 days with n=250.

wheat [4] = assay: Greenhouse trial, wheat with slow-release fertilizer and aqueous delivery of DBDTP; type: in vivo; conditions: 5 and 25 mg/pot DBDTP in 200 mL water, in the presence of fertilizer (Osmocote), 4 weeks after planting
Protocol: as §1
Wheat: To test whether the germination test growth enhancement response observed in wheat would still occur in the presence of added nitrogen fertilizer, wheat was grown under varying levels of slow-release fertilizer (Osmocote) and then watered in with an aqueous solution of DBDTP (see Carter J M, et al., 2019, J. Agric Food Chem. 67:11883-11892). Osmocote was added to potting soil according to the label to achieve low or medium fertilization rates. Prior to planting, pots were watered and seed was sown into moist potting soil. Immediately after planting, each pot was watered with 200 mL water containing, 0, 5, 25, 50, 100, or 500 mg dissolved DBDTP. Pots were not watered for ~5 days after planting to avoid flushing DBDTP out of the pot.

pea [5] = assay: Greenhouse trial, pea with aqueous delivery of DBDTP; type: in vivo; conditions: 4 weeks after planting
Protocol: as §1
Pea: Prior to planting, pots were watered and seed was sown into moist potting soil. Immediately after planting, each pot was watered with 200 mL water containing, 0, 5, 25, 50, 100, or 500 mg dissolved DBDTP. Pots were not watered for ~5 days after planting to avoid flushing DBDTP out of the pot.

wheat [6] = assay: Greenhouse tests to identify ideal DBDTP seed treatment concentrations for wheat (SPRET surfactant); type: in vivo
Protocol: as §1, §2, §3
Greenhouse tests to identify ideal DBDTP seed treatment concentrations: A 7% w/v solution was used for each DBDTP treatment to achieve an even coating of wheat seeds. For each DBDTP level, small amounts of DBDTP were dissolved in the SPRET solution according to Table 2 and seed was treated with a 7% w/v solution. Five seeds were sown in 6″ pots and averaged for a single rep. Each DBDTP treatment had three replications.

MT Dagmar spring wheat = assay: Field trial of DBDTP treated wheat seed; type: in vivo
Protocol: Seed treatment levels consisted of 0, 12.5, 25, 50, and 100 mM DBDTP as in Table 2 and applied in a 7% w/v solution. All seed for each treatment (1000 g) was treated at one time and then once dried it was weighed out for planting in single rows. For each seed treatment level, 15 reps were planted using a complete, randomized block design. Each rep consisted of a 10′, 2 row plot. Plots were seeded at a rate of 10 g/row. Seed was tractor planted, and prior to planting, the field was worked, and N was delivered to achieve 390 Ibs urea/acre. […] The 12.5 mM and 25 mM seed treatments appear to be the best concentrations to boost grain yield as well, as these treatments yielded an average of 3.5-5% higher respectively than the 0 mM control (FIG. 7B). An ideal treatment range encompasses the 12.5 mM and 25 mM treatments and high end of ideal concentrations likely lies between the 25 mM and 50 mM treatments.

Provider bush beans = assay: Field trial of DBDTP treated green bean seed; type: in vivo
Protocol: Seed treatment levels consisted of 0, 175 mM, 350 mM, 700 mM, and 1.4 M DBDTP (Table 3) and seed was treated with a 5% w/v solution of diluted SPRET surfactant and DBDTP. For each seed treatment level, 15 reps were planted using a complete, randomized block design. Each rep consisted of a 3′, 2 row plot with 18 seeds planted per row. Entire plants were harvested at maturity and biomass was averaged for each row. Each row was considered a single rep. For each plot of treated seed, biomass was increased compared to the 0 mM control (FIG. 8A). […] Depending on whether the goal was to increase seed weight, or plant biomass, an ideal treatment range encompasses the 175 mM, 350 mM, and 700 mM treatments. These concentrations correspond to a range of 0.07-0.28 mg DBDTP/seed.

Avondale lentil = assay: Greenhouse test of DBDTP seed treatment concentration for lentil growth; type: in vivo
Protocol: Testing was carried out in the greenhouse. Seed was treated according to Table 4. Prior to planting, pots were watered and seed was sown into moist potting soil. Pots were not watered for 5 days after planting to avoid flushing DBDTP out of the pot. […] Seed was treated with a 1.5% w/v solution of diluted SPRET surfactant with addition of DBDTP. Early plant growth was boosted between treatment concentrations 0.188 M-1.7 M. A likely beneficial treatment range lies between 0.03-0.26 mg/seed.

Cherry Belle F1 radish = assay: Field trial of DBDTP treated radish seed; type: in vivo
Protocol: Seed treatment levels consisted of 0, 12.5, 25, 50, and 100 mM DBDTP (Table 5) and seed was treated with a 7% w/v solution of diluted SPRET surfactant and DBDTP. For each seed treatment level, 15 reps were planted using a complete, randomized block design. Each rep consisted of a single 3′ row plot. Plots were seeded at a rate of 36 seeds/row and thinned to 4-6″ apart. Root fresh weight was averaged for each row and each row was considered a single rep. Root biomass was increased compared to the control at the 12.5 mM treatment level (FIG. 10). This corresponded to 0.001 mg/seed. Radish root growth likely be enhanced with an application rate in a range of 0.001-0.005 mg DBDTP/seed.

MT 457 green field pea = assay: Field trial of DBDTP treated green field pea (with pesticide seed treatments); type: in vivo
Protocol: (§4) For this method, DBDTP amounts were combined with commonly used seed treatment pesticides using the recommended, crop-specific amount on the product label. The pesticides that were used include Obvius Plus Specimen fungicide seed treatment (BASF Corporation), Dyna-Shield imidacloprid 5 (Loveland Products), and Cruiser Maxx Vibrance Cereals (Syngenta). Pesticide amounts correspond to species-specific recommended amounts on the product label. After treatments were added to seeds, seed was rolled 5 minutes and allowed to dry completely.
Seed treatment levels consisted of 0, 52, 103, 207, and 413 mM DBDTP (Table 6). Seed was treated with a 1.7% w/v solution that included DBDTP and seed treatment pesticides Dyna-Shield and Obvius (Table 6). After seed was treated and dried, it was inoculated with N Charge Inoculant for Pea, Vetch, and Lentil (Verdesian; 1.40 g/450 g seed) and planted within the same day as inoculating. For each seed treatment level, 15 reps were planted using a complete, randomized block design. Each rep consisted of a 10′, 2 row plot with 60 seeds planted per row. Mature seed was harvested for each plot. […] Seed yield was increased under all treatment levels tested, in a range of 0.04-0.31 mg/seed.

chickpea = assay: Greenhouse test of DBDTP seed treatment concentration for chickpea growth (pesticide slurry); type: in vivo
Protocol: as §4
This test took place in the greenhouse. Seed was treated according to Table 7. Prior to planting, pots were watered and seed was sown into moist potting soil. Pots were not watered for 5 days after planting to avoid flushing DBDTP out of the pot. […] An ideal range likely falls between 0.05-0.46 mg DBDTP/seed.

wheat [7] = assay: Greenhouse test of DBDTP added to Cruiser Maxx Vibrance Cereals slurry for wheat; type: in vivo
Protocol: as §4
DBDTP was added to a slurry of Cruiser Maxx Vibrance Cereals according to Table 8. Prior to the addition of DBDTP, the pesticide was diluted 1:1 Cruiser:H2O. DBDTP was added to the diluted Cruiser, such that 2.1 mg DBDTP was added to 62.5 μL to treat 5 g of seed. This experiment was planted in the greenhouse, and at 14 days after planting, the 25 mM treated seed was taller and had more tillers than the 0 mM control (FIG. 13). This experiment was planted in two separate greenhouses-one where the lights had been recently replaced with new LED lights, and one where the old light system remained. […] The main difference observed between the lights was that growth was much enhanced under the new lights, boosting tillering overall. This means that tillering differences due to DBDTP treatment may be observed earlier under the new LED light system.

corn = conditions: addition to a commercial liquid starter fertilizer applied in furrow with the seeds; cited from earlier work
[8] = seed treatments of up to 50 mM DBDTP, 35 days after planting
[9] = 25 mM in Cruiser Maxx Vibrance Cereals slurry, 14 days after planting, vs 0 mM control

dihexyldecycldithiophosphate [dihexyldecycldithiophosphate (C16)]
tiller number (wheat [1]): improved

CCCCCCCCOP(=S)(S)OCCCCCCCC [dioctyldithiophosphate (C8), dioctyldithiophosphate]
tiller number (wheat [1]): improved

CCCCOP(=S)(S)OCCCC [DBDTP, dibutyl dithiophosphate]
DBDTP concentration range with positive growth response (shoot and root length) (wheat [2]): 10 to 250 mg/L | growth response of pea seedlings (pea [3]): positive growth response | tiller number (wheat [4]): boost to tiller number | growth response (pea vine length), best doses (pea [5]; 100 and 500 mg/pot DBDTP): greatest boost to growth | growth response (pea vine length) (pea [5]; each DBDTP treatment (5, 25, 50, 100, 500 mg/pot in 200 mL water)): positive response | tiller number (wheat [1]): most improved | germination (wheat [6]; seed treatment doses higher than 50 mM, 7% w/v in SPRET): reduce germination | plant height (wheat [6]; [8]): enhanced | tiller number (wheat [6]; [8]): enhanced | grain yield, average increase over the 0 mM control (MT Dagmar spring wheat; 12.5 mM seed treatment): 3.5% | grain yield, average increase over the 0 mM control (MT Dagmar spring wheat; 25 mM seed treatment): 5% | plant growth and yield (MT Dagmar spring wheat; 100 mM DBDTP seed treatment): significantly diminished | tiller number (MT Dagmar spring wheat; 12.5 and 25 mM seed treatment, 4 weeks after planting, vs 0 mM control): significantly higher | plant biomass (Provider bush beans; each plot of treated seed (175 mM, 350 mM, 700 mM, 1.4 M), harvested at maturity, vs 0 mM control): increased | seed pod weight (Provider bush beans; lowest level tested (175 mM), vs control): increased | Likely ideal DBDTP range, green bean (Provider bush beans; seed treatment, green bean): 0.07-0.28 mg/seed | growth response of lentil (Avondale lentil; around the 375 mM treatment level, 14 days after planting, 1.5% w/v SPRET): positive DBDTP growth response | Likely ideal (beneficial) DBDTP range, lentil (Avondale lentil; seed treatment, lentil): 0.03-0.26 mg/seed | root biomass (root fresh weight) (Cherry Belle F1 radish; 12.5 mM treatment level (0.001 mg/seed), vs control): increased | Likely ideal DBDTP range, radish (Cherry Belle F1 radish; seed treatment, radish): 0.001-0.005 mg/seed | seed yield, best treatment (MT 457 green field pea; 413 mM treated seed): highest yielding | seed yield (MT 457 green field pea; each plot of treated seed (52, 103, 207, 413 mM), with Dyna-Shield and Obvius, vs control): increased | Likely ideal DBDTP range, pea (range in which seed yield was increased) (MT 457 green field pea; seed treatment, pea): 0.04-0.31 mg/seed | growth response of chickpea (chickpea; 100 mM treatment level in pesticide slurry, 14 days after planting): positive DBDTP growth response | Likely ideal DBDTP range, chickpea (chickpea; seed treatment, chickpea): 0.05-0.46 mg/seed | plant height (wheat [7]; [9]): taller | tiller number (wheat [7]; [9]): more tillers | performance against control in both greenhouses (new LED lights, old light system) (wheat [7]; 25 mM treated seed): outperformed the control | corn yield (corn): increases corn yield
